Data set [1] has as its system Staphylococcus aureus 209 P JC-1. Kind of data set: Minimum Inhibitory Concentration (MIC), antibacterial spectrum in vitro. Particulars: 209PJC1; Staphylococcus aureus 209 P JC-1; read-out: Minimum Inhibitory Concentration (MIC). It is filed as cell-based.
In data set [2] the test system is Streptococcus faecalis ATCC 8043. The description is as above. Particulars: Enterococcus faecalis, ATCC8043; Streptococcus faecalis ATCC 8043; read-out: Minimum Inhibitory Concentration (MIC). Type of data set: cell-based.
The subject of data set [3] is Esherichia coli NIHJ JC-2. Described as above. Type of data set: cell-based.
In data set [4] the test system is Klebsiella pneumoniae PCI 602. The description is as above. Type of data set: cell-based. To be noted: PCI602; Klebsiella pneumoniae PCI 602; read-out: Minimum Inhibitory Concentration (MIC).
Data set [5] has as its system Salmonella typhimurium LT-2. Described as above. It is filed as cell-based. Particulars: Salmonella enterica; Salmonella typhimurium LT-2; read-out: Minimum Inhibitory Concentration (MIC).
A further data set deals with Proteus morganii 1510. Described as above. Type of data set: cell-based. To be noted: Morganella morganii; Proteus morganii 1510; read-out: Minimum Inhibitory Concentration (MIC).
Data set [6] has as its system Citrobacter freundii GN-346. The data set is described as above. Type of data set: cell-based. To be noted: GN346; Citrobacter freundii GN-346; read-out: Minimum Inhibitory Concentration (MIC).
Data set [7] relates to Pseudomonas aeruginosa MB-3833. The description is as above. Type of data set: cell-based. Particulars: MB3833; Pseudomonas aeruginosa MB-3833; read-out: Minimum Inhibitory Concentration (MIC).
Data set [8] deals with Pseudomonas aeruginosa E-2. Described as above. It is filed as cell-based. To be noted: E2; Pseudomonas aeruginosa E-2; read-out: Minimum Inhibitory Concentration (MIC).
For another data set, the system named is Pseudomonas aeruginosa. The data set is described as follows: Antibacterial activity against Pseudomonas aeruginosa (from Table 1). Type of data set: cell-based. Particulars: in words.
The next data set has as its system Streptococcus faecalis. The data set is described as follows: Antibacterial activity against Streptococcus faecalis (statement in words). It is filed as cell-based.
The subject of a further data set is Esherichia coli TEM DC-2. The data set is described as follows: Minimum Inhibitory Concentration (MIC), antibacterial spectrum in vitro. It is filed as cell-based. To be noted: read-out: Minimum Inhibitory Concentration (MIC).
For another data set, the system named is Enterobacter cloacae P99. Described as above. Type of data set: cell-based. To be noted: P99, read-out: Minimum Inhibitory Concentration (MIC).
The subject of data set [9] is Pseudomonas aeruginosa RPL-11. Described as above. Type of data set: cell-based. Particulars: RPL11; Pseudomonas aeruginosa RPL-11; read-out: Minimum Inhibitory Concentration (MIC).
The nature of data set [10]: Concentration in Blood Serum after subcutaneous dosing (bioassay using Escherichia coli). Type of data set: in vivo. To be noted: mouse, sc, 25 mg/Kg subcutaneously, mice; for concentration at 0.5 h: 1/2 hour; for concentration at 0.25 h: 1/4 hour; for concentration at 5 min: 1/12 hour. How it is done: The concentration of the compound in the serum was determined by bioassay using Escherichia coli as assay microorganism.

Structures are written as SMILES. In brackets after ≈: the same amount, converted by molar mass. Where a name gives a salt, the structure may show the parent alone. Where only a bound is given, the exact number is not on record here.

With `CON=C(C(=O)NC1C(=O)N2C(C(=O)[O-])=C(CSc3cc[n+](CC(F)(F)F)cc3)C(C)OC12)c1csc(N)n1` [Compound 6, (6R,7R)-7-((Z)-2-(2-Aminothiazole-4-yl)-2-methoxyiminoacetamide)-(2S)-2-methyl-3-(1-(2,2,2-trifluoroethyl)pyridinium-4-ylthiomethyl)-1-oxa-1-dethiaceph-3-em-4-carboxylate], the MIC in data set [1] was 0.2 µg/mL (≈ 0.341 µM); in data set [2], 12.5 µg/mL (≈ 21.3 µM); in data set [3], 0.05 µg/mL (≈ 0.0852 µM); in data set [4], 0.1 µg/mL (≈ 0.17 µM); in [5], below 0.025 µg/mL; in the data set on Proteus morganii 1510, 6.25 µg/mL (≈ 10.7 µM). In addition, the MIC amounted to 50 µg/mL (≈ 85.2 µM) in data set [6], 3.13 µg/mL (≈ 5.34 µM) in data set [7] and 3.13 µg/mL (≈ 5.34 µM) in data set [8]. Further, in the data set with Pseudomonas aeruginosa, the “effectiveness against Pseudomonas aeruginosa” value was “effective against Pseudomonas aeruginosa”. The “effectiveness against Streptococcus faecalis” value in the data set with Streptococcus faecalis is given as “effective against Streptococcus faecalis”.
With `CON=C(C(=O)NC1C(=O)N2C(C(=O)[O-])=C(CSc3cc[n+](C)cc3)COC12)c1csc(N)n1` [Compound 10, (6R,7R)-7-((Z)-2-(2-Aminothiazole-4-yl)-2-methoxyiminoacetamide)-3-(1-methylpyridinium-4-yl-thiomethyl)-1-oxa-1-dethiaceph-3-em-4-carboxylate], the MIC in data set [1] is 0.1 µg/mL (≈ 0.198 µM); in data set [2], 1.56 µg/mL (≈ 3.09 µM); in [3], below 0.025 µg/mL; in [4] it was 0.025 µg/mL (≈ 0.0495 µM); in data set [5] it was below 0.025 µg/mL; in the data set with Proteus morganii 1510 it was 1.56 µg/mL (≈ 3.09 µM). The MIC in data set [6] was 1.56 µg/mL (≈ 3.09 µM); in data set [7], 6.25 µg/mL (≈ 12.4 µM); in data set [8], 25 µg/mL (≈ 49.5 µM). The “effectiveness against Streptococcus faecalis” value in the data set with Streptococcus faecalis is given as “effective against Streptococcus faecalis”.
Consider `CCON=C(C(=O)NC1C(=O)N2C(C(=O)[O-])=C(CSc3cc[n+](CC(=O)O)cc3)C(C)OC12)c1csc(N)n1` [Compound 8, (6R,7R)-7(Z)-2-(2-Aminothiazole-4-yl)-2-ethoxyiminoacetamide)-(2S)-2-methyl-3-(1-carboxymethylpyridinium-4-ylthiomethyl)-1-oxa-1-dethiaceph-3-em-4-carboxylate (Sodium Salt)], for which the MIC in [1] turned out to be 0.39 µg/mL; in [2] it was 6.25 µg/mL; in data set [3], 0.1 µg/mL; in [4] it was 0.05 µg/mL; in [5] it was 0.05 µg/mL; with Proteus morganii 1510, 0.78 µg/mL. The results for the MIC in data set [6], in [7] and in [8] were 6.25 µg/mL, 12.5 µg/mL and 12.5 µg/mL, respectively. The “effectiveness against Streptococcus faecalis” value in the data set with Streptococcus faecalis is on record as “effective against Streptococcus faecalis”.
For the molecule `CON=C(C(=O)NC1C(=O)N2C(C(=O)[O-])=C(CSc3cc[n+](CC(=O)O)cc3)COC12)c1csc(N)n1` [Compound 11, (6R,7R)-7-((Z)-2-(2-Aminothiazole-4-yl)-2-methoxyiminoacetamide)-3-(1-carboxymethylpyridinium-4-yl-thiomethyl)-1-oxa-1-dethiaceph-3-em-4-carboxylate (Sodium Salt)], the MIC is 0.39 µg/mL in [1]; 0.78 µg/mL in data set [2]; below 0.025 µg/mL in data set [3]; 0.025 µg/mL in data set [4]; below 0.025 µg/mL in data set [5]; 6.2 µg/mL in the data set with Proteus morganii 1510. The results for the MIC in [6], in data set [7] and in data set [8] were 12.5 µg/mL, 25 µg/mL and 50 µg/mL, respectively. Besides, the “effectiveness against Streptococcus faecalis” value in the data set on Streptococcus faecalis is “effective against Streptococcus faecalis”.
As for `CON=C(C(=O)NC1C(=O)N2C(C(=O)[O-])=C(CSc3cc[n+](CC(=O)O)cc3)C(C)OC12)c1csc(N)n1` [Compound 7, (6R,7R)-7-((Z)-2-(2-Aminothiazole-4-yl)-2-methoxyiminoacetamide)-(2S)-2-methyl-3-(1-carboxymethylpyridinium-4-ylthiomethyl)-1-oxa-1-dethiaceph-3-em-4-carboxylate (Sodium Salt)], the MIC in data set [1] is 0.39 µg/mL; in data set [2], 12.5 µg/mL; in [3], below 0.025 µg/mL; in [4], 0.025 µg/mL; in data set [5], below 0.025 µg/mL; with Proteus morganii 1510, 0.78 µg/mL. The MIC worked out at 6.25 µg/mL in data set [6], 12.5 µg/mL in data set [7] and 12.5 µg/mL in [8]. Further, the “effectiveness against Streptococcus faecalis” value with Streptococcus faecalis is “effective against Streptococcus faecalis”.
On to `CCON=C(C(=O)NC1C(=O)N2C(C(=O)[O-])=C(CSc3cc[n+](CC(=O)O)cc3)COC12)c1csc(N)n1` [Compound 12, (6R,7R)-7-((Z)-2-(2-Aminothiazole-4-yl)-2-ethoxyiminoacetamido)-3-(1-carboxymethylpyridinium-4-ylthiomethyl)-1-oxa-1-dethiaceph-3-em-4-carboxylate (Sodium Salt)], for which the MIC in data set [1] is 0.39 µg/mL; in [2], 6.25 µg/mL; in data set [3] it was below 0.025 µg/mL; in data set [4], 0.025 µg/mL; in data set [5], below 0.025 µg/mL; with Proteus morganii 1510, 12.5 µg/mL. Moreover, the MIC in data set [6] stood at 12.5 µg/mL; in [7], 12.5 µg/mL; in data set [8] it was 25 µg/mL. Moreover, in the data set on Streptococcus faecalis, the “effectiveness against Streptococcus faecalis” value was “effective against Streptococcus faecalis”.
As to `C[n+]1ccc(SCC2=C(C(=O)[O-])N3C(=O)C(NC(=O)C(=NOCC(=O)O)c4csc(N)n4)C3OC2)cc1` [Compound 13, (6R,7R)-7-((Z)-2-(2-Aminothiazole-4-yl)-2-carboxymethoxyiminoacetamide)-3-(1-methylpyridinium-4-ylthiomethyl)-1-oxa-1-dethiaceph-3-em-4-carboxylate (Sodium Salt)], the MIC was 1.56 µg/mL in data set [1]; 50 µg/mL in data set [2]; below 0.025 µg/mL in data set [3]; 1 µg/mL in the data set on Esherichia coli TEM DC-2; 64 µg/mL with Enterobacter cloacae P99; 25 µg/mL in [4]. Further, the MIC in data set [5] is below 0.025 µg/mL; in the data set on Proteus morganii 1510, 1.56 µg/mL; in [6], 6.25 µg/mL; in data set [7] it was 6.25 µg/mL; in [8] it was 6.25 µg/mL; in [9], 128 µg/mL.
In the case of `CC(C)(ON=C(C(=O)NC1C(=O)N2C(C(=O)[O-])=C(CSc3cc[n+](CC(F)(F)F)cc3)COC12)c1csc(N)n1)C(=O)O` [Compound 16, (6R,7R)-7-((Z)-2-(2-Aminothiazole-4-yl)-2-(2-carboxyprop-2-oxyimino)acetamide)-3-(1-(2,2,2-trifluoroethyl)-pyridinium-4-ylthiomethyl)-1-oxa-1-dethiaceph-3-em-4-carboxylate (Sodium Salt)], the MIC in [1] was 3.13 µg/mL; in data set [2], above 100 µg/mL; in data set [3], 0.1 µg/mL; in the data set with Esherichia coli TEM DC-2, 0.03 µg/mL; in the data set on Enterobacter cloacae P99, 128 µg/mL; in [4], 0.1 µg/mL. The MIC was below 0.025 µg/mL in [5]; 6.25 µg/mL with Proteus morganii 1510; 25 µg/mL in data set [6]; 1.56 µg/mL in [7]; 1.56 µg/mL in [8]; 32 µg/mL in data set [9]. Further, the concentration at 0.5 h in data set [10] was found to be 11000 ng/mL. The molecule also yielded a concentration at 0.25 h in data set [10] of 20000 ng/mL. Further, in data set [10], the concentration at 5 min was determined as 16000 ng/mL. Also, the concentration at 1 h in data set [10] came out at 2400 ng/mL. Further, the “effectiveness against Pseudomonas aeruginosa” value with Pseudomonas aeruginosa is “effective against Pseudomonas aeruginosa”.
As for `CC1OC2C(NC(=O)C(=NOCC(=O)O)c3csc(N)n3)C(=O)N2C(C(=O)[O-])=C1CSc1cc[n+](CC(=O)O)cc1` [Compound 9, (6R,7R)-7-((Z)-2-(2-Aminothiazole-4-yl)-2-carboxymethoxyiminoacetamide)-(2S)-2-methyl-3-(1-carboxymethylpyridinium-4-ylthiomethyl)-1-oxa-1-dethiaceph-3-em-4-carboxylate (Sodium Salt)], the MIC is 6.25 µg/mL in data set [1]; 50 µg/mL in data set [2]; 0.1 µg/mL in data set [3]; 0.1 µg/mL in [4]; below 0.025 µg/mL in data set [5]; 0.78 µg/mL in the data set with Proteus morganii 1510. For the same molecule, the MIC in data set [6] worked out at 12.5 µg/mL; in data set [7], 3.13 µg/mL; in [8], 3.13 µg/mL. This molecule yielded a concentration at 0.5 h in data set [10] of 25000 ng/mL. Further, the concentration at 0.25 h in [10] was 32000 ng/mL. In [10], this molecule came in with a concentration at 5 min of 36000 ng/mL. The molecule further registered a concentration at 1 h in data set [10] of 5100 ng/mL. Further, the “effectiveness against Pseudomonas aeruginosa” value in the data set on Pseudomonas aeruginosa is reported as “effective against Pseudomonas aeruginosa”.

(Values after patent publication US4645769A, “1-oxa-1-dethia-cephalosporin compounds and antibacterial agent comprising the same” (Merck & Co., Inc., priority 1985, dated 1987).)
